Reference: patent US5001118A, “Method for preventing senescence and increasing bone mass” (priority 1986, dated 1991)

Assays:
ICR type mice [1] = experiment: Biochemical inspection of blood serum, daily oral administration; assay type: in vivo, mouse (ICR type); parameters: key: .dwnarw.: Decrease below control; →: No difference from control; .uparw.: Increase above control
Excerpt: The results are compared below with respect to the following items with those obtained of the male- and female-groups using only the solvent without the present substance.

[2] = test system: femurs of male Wister rats; experiment: Fracture test of femurs; assay type: in vivo, rat (Wister); settings: rat femur, 40 μg/kg orally, 24 months; 20 kg-load cell; control 11.6 ± 2.2
Experimental: Male Wister rats 4 weeks old were preliminarily kept for 2 weeks. For the subsequent 24 months, the present substance, 24R,25-(OH)2 -D3, was orally administered to the pre-bred rats daily at a dosage of 40 μg/kg.day. Then, the aged rats were sacrificed and their femurs were collected and fractured with an instrument (produced by Iio Denki Co., Ltd. and marketed under trade name of "Rheodynacorder RDR-1500(D)") using a 20 kg-load cell, at a distance of 6.5 mm from the trochanter minor under the condition of a fulcrum interval of 13 mm to determine the power required for the fracture.
As regards the manner of administration, a modified feed was prepared by uniformly dispersing a prescribed amount of the present substance, 24R,25-(OH)2 -D3, in glycine and admixing the resultant dispersing mixture with a marketed feed (produced by Nippon Clea Co., Ltd. under product code of "CE-2") in such a manner as to give a final glycine concentration of 0.5% by weight and the modified feed was consumed by the rats. The administration dosage was calculated on the basis of the actual amount of the feed consumed by the rats.

ICR type male mice = experiment: Acute toxicity, oral administration; assay type: in vivo; settings: 100 mg/kg p.o.
Experimental: (§1) A test solution was prepared by dissolving the present substance, 24R,25-(OH)2 -D3, in ethanol and again dissolving the resultant ethanol solution in triglyceride ester of a fatty acid of 8 to 10 carbon atoms so that the ethanol concentration is 2%. Then, the test solution was orally administered (p.o.) at a dose of 100 mg/kg to a test group of 10 ICR type male mice (each weighing 25±3 g). For two weeks, the mice were kept under observation for sign of toxication. […] They were then sacrificed and subjected to biochemical blood inspection, anatomical observation, and histopathological inspection.

[3] = Acute toxicity, oral administration; assay type: in vivo; settings: mouse, in vivo, po
Experimental: as §1

ICR type mice [4] = experiment: General inspection of blood, daily oral administration; assay type: in vivo, mouse (ICR type); parameters: key: .dwnarw.: Decrease below control; →: No difference from control; .uparw.: Increase above control
Experimental: (§2) Solutions obtained by dissolving the present substance, 24R,25-(OH)2 -D3 in a prescribed concentration in triglyceride of a fatty acid of 8 to 10 carbon atoms containing 1% of ethanol were administered respectively, orally, forcedly and daily to three male-groups and three female-groups of ICR type mice 5 weeks old at dosages of 10, 100, and 1,000 μg/kg.day. The results are compared below with respect to the following items with those obtained of the male- and female-groups using only the solvent without the present substance.

[5] = Growth curves (body weight), daily oral administration; assay type: in vivo, mouse (ICR type); settings: male and female ICR mice, 10, 100, and 1,000 μg/kg.day orally
Experimental: as §2

## C=C1CC[C@H](O)C/C1=C/C=C1\CCC[C@]2(C)[C@@H]([C@H](C)CC[C@@H](O)C(C)(C)O)CC[C@@H]12 [24R,25-(OH)2 -D3]
ICR type mice [1]; female, 10 μg/kg
  A/G: →
  ALP: →
  Alb: →
  BUN: →
  Ca: →
  GOT: →
  GPT: →
  Glu: →
  I-P: →
  LDH: →
  T-Bil: →
  T-CHO: →
  T-P: →
ICR type mice [1]; female, 100 μg/kg
  A/G: →
  ALP: →
  Alb: →
  BUN: →
  Ca: →
  GOT: →
  GPT: →
  Glu: →
  I-P: →
  LDH: →
  T-Bil: →
  T-CHO: →
  T-P: →
ICR type mice [1]; female, 1000 μg/kg
  A/G: →
  ALP: →
  Alb: →
  BUN: →
  Ca: →
  GOT: →
  GPT: →
  Glu: →
  I-P: →
  LDH: →
  T-Bil: →
  T-CHO: →
  T-P: →
ICR type mice [1]; male, 10 μg/kg
  A/G: →
  ALP: →
  Alb: →
  BUN: →
  Ca: →
  GOT: →
  GPT: →
  Glu: →
  I-P: →
  LDH: →
  T-Bil: →
  T-CHO: →
  T-P: →
ICR type mice [1]; male, 100 μg/kg
  A/G: →
  ALP: →
  Alb: →
  BUN: →
  Ca: →
  GOT: →
  GPT: →
  Glu: →
  I-P: →
  LDH: →
  T-Bil: →
  T-CHO: →
  T-P: →
ICR type mice [1]; male, 1000 μg/kg
  A/G: →
  ALP: →
  Alb: →
  BUN: .dwnarw.
  Ca: →
  GOT: →
  GPT: →
  Glu: .dwnarw.
  I-P: →
  LDH: .dwnarw.
  T-Bil: .dwnarw.
  T-CHO: →
  T-P: →
[2]
  Power for fracture: Out of scale, so large
ICR type male mice; 10 ICR male mice, two weeks
  sign of abnormality: no sign of abnormality
  survival: All of the mice survived
ICR type male mice; ICR male mice, after two weeks
  biochemical blood inspection, anatomical observation, and histopathological inspection vs control: not different at all
[3]
  LD50 at 336 h: ≥ 100 mg/kg
ICR type mice [4]; female, group IV, 10 μm/kg
  Amount of hemoglobin: →
  Hematocrit value: →
  Number of red blood cells: →
  Number of white blood cells: →
ICR type mice [4]; female, group V, 100 μm/kg
  Amount of hemoglobin: →
  Hematocrit value: →
  Number of red blood cells: →
  Number of white blood cells: →
ICR type mice [4]; female, group VI, 1000 μg/kg
  Amount of hemoglobin: →
  Hematocrit value: →
  Number of red blood cells: →
ICR type mice [4]; female, group VI, 1000 μm/kg
  Number of white blood cells: →
ICR type mice [4]; male, group I, 10 μm/kg
  Amount of hemoglobin: →
  Hematocrit value: →
  Number of red blood cells: →
  Number of white blood cells: →
ICR type mice [4]; male, group II, 100 μm/kg
  Amount of hemoglobin: →
  Hematocrit value: →
  Number of red blood cells: →
  Number of white blood cells: →
ICR type mice [4]; male, group III, 1000 μg/kg
  Amount of hemoglobin: →
  Hematocrit value: →
  Number of red blood cells: →
ICR type mice [4]; male, group III, 1000 μm/kg
  Number of white blood cells: →
[5]
  change of body weight (growth curves): absence of a discernible difference
